Results on 5 compounds are retold here after patent US5041451A, “Tetrahydroisoquinoline and tetrahydrothieno derivatives” (Dr. Lo. Zambelletti SpA, priority 1988, dated 1991).

Counter-ions that a name gives are not always drawn.

The term ED50 denotes the dose that gives a 50% effect, or the effect in half of the subjects.

Experiment [1] deals with mice (p-phenylquinone-induced abdominal writhing). The experiment is described as follows: P-phenylquinone-induced abdominal writhing test in mice. Type of experiment: in vivo, mouse (male Charles River, Swiss Strain). Particulars: Mus musculus, sc, 20 min; s.c., 20 min pretreatment; p-phenylquinone 2 mg/Kg i.p.; 8 min observation; data given for free base form; read-out: ANALGESIA MOUSE WRITHING ED50. The protocol: P-phenylquinone-induced Abdominal Writhinq Test in Mice
The methodology employed is based on that described by Sigmund et al, Proc. Soc. Exptl. Biol. 95, 729/1957, modified by Milne and Twomey, Agents and Actions, 10, 31/1980.
Male Charles River mice (Swiss Strain), 25-36 g body weight, are used. Animals are allowed food and water ad libitum and are randomized into groups of 10 prior to experimentation. Test compounds are dissolved in either distilled water or distilled water plus 0.1 M AMS, and administered by the subcutaneous route in a final volume of 10 ml/Kg. Control animals receive 10 ml/Kg of the appropriate vehicle alone. Following a pretreatment period of 20 min., mice are injected intraperitoneally with p-phenylquinone, 2 mg/Kg at 37° C. in a final volume of 10 mg/Kg. Next, the mice are placed, in a groups of 3, in a compartmented perspex box maintained at room temperature and are observed for a period of 8 min. During this period the number of abdominal writhing responses per animal are recorded where writhing consists of an intermittent contraction of the abdomen associated with hind leg extension.
The degree of antinociceptive protection afforded by the test compound is determined as the mean number of writhing responses observed in the treated group (T) expressed as a percentage of the mean number of writhing responses in the control group (C) according to the following formula:
[1-(T/C)]×100%=% graded protection.

For experiment [2], the system named is mice (tail-flick, heat source reaction time). In words: Mouse tail-flick test. Type of experiment: in vivo, mouse (male Charles River). Conditions: sc, 0.5 h, s.c., 30 min after dosing, percent number of mice doubling the initial time, data given for free base form, read-out: ANALGESIA MOUSE TAIL-FLICK ED50. The protocol:
Mouse Tail-flick test (Modified from the procedure published by D Amour et al., J. Pharm. Exptl. Ther.72, 74/1941).
Male Charles River mice, average weight 26g, are used. Selection is carried out before beginning of experiments: only mice whose reaction time is less than 8 sec are used. They are randomly distributed into groups of 10 and dosed with compounds under test, with positive and negative controls being included.
Compounds under test are administered subcutaneously in isotonic saline in a volume of 20 ml. Kg^-1. 30 min later mice are placed again under heat source (Socrel apparatus) and reaction time is recorded.
The analgesic activity of the test compound is expressed as the percent number of mice doubling the initial time within a group. [formula]
For orientation: Thermal pain tests record how soon the animal reacts.

On to `O=C1CCCc2cc(CC(=O)N3CCc4sccc4C3CN3CCCCC3)ccc21` (single isomer, unassigned) [Example 5, (-)4-(piperidin-1-yl)methyl-5-(1-oxo-3,4-dihydro-(2H)-napht-6-yl)acetyl-4,5,6,7-tetrahydrothieno [3,2-c]pyridine L(+) tartrate], for which the ED50 in experiment [1] is 0.009 mg/kg; in experiment [2], 0.045 mg/kg.
On the same counts, the results for `O=C1CCCc2cc(CC(=O)N3CCc4ccccc4C3CN3CCCC3)ccc21` (stereo not shown) [Example 1, 1-(pyrrolidin-1-yl)methyl-2-(1-oxo-3,4-dihydro-(2H)-napht-6-Yl)acetyl-1,2,3,4-tetrahydroisoquinoline hydrochloride] are 0.036 mg/kg and 0.114 mg/kg.
On the same counts, the results for `O=C1CCCc2cc(CC(=O)N3CCc4ccccc4C3CN3CCCCC3)ccc21` (stereo not shown) [Example 2, 1-(piperidin-1-yl)methyl-2-(1-oxo-3,4-dihydro-(2H)-napht-6-yl)acetyl-1,2,3,4-tetrahydroisoquinoline hydrochloride] are 0.038 mg/kg and 0.206 mg/kg.
For `O=C1CCCc2cc(CC(=O)N3CCc4sccc4C3CN3CCCC3)ccc21` (stereo not shown) [Example 3, 4-(pyrrolidin-1-yl)methyl-5-(1-oxo-3,4-dihydro-(2H)-napht-6-yl)acetyl-4,5,6,7-tetrahydrothieno [3,2-c] pyridine hydrochloride], the median effective dose (ED50) in experiment [1] was 0.023 mg/kg; in experiment [2], 0.086 mg/kg.
On to `O=C1CCCc2cc(CC(=O)N3CCc4sccc4C3CN3CCCCC3)ccc21` (stereo not shown) [Example 4, 4-(piperidin-1-yl)methyl-5-(1-oxo-3,4-dihydro-(2H)-napht-6-Yl)acetyl-4,5,6,7-tetrahydrothieno [3,2-c]pyridine hydrochloride hemihydrate], for which the ED50 in experiment [1] came out at 0.017 mg/kg; in experiment [2], 0.174 mg/kg.
